From patent publication US20160150778A1, “PLASTIC HAVING A BIOCIDAL SURFACE AND METHOD FOR PRODUCING SAID PLASTIC” (JANSEN AG, priority 2013, published 2016)

Tests used:
[1] = discoloration / decomposition of quat on compounding into polyethylene melt; format: physicochemical; set-up: key: ++: heavy discoloration; +: discoloration; 0: weak discoloration; −: hardly any discoloration
Procedure: Experiments were carried out in which the additives shown in Table 2 were processed into a polyethylene melt in a concentration of 2.5%, 5% and 10% into polyethylene RT Dowlex 2388. The compounding conditions included 12 minutes of mixing at 210° C. Partial decomposition of the quat was observed during this step.
Part of the time, a strong violet coloration and a (“fishy”) smell of amines were observed, in particular with additives containing multiple methyl groups and at high concentrations. The probable decomposition mechanism is a Hofmann decomposition.

[2] = solubility of the oil in solvents; format: physicochemical
Procedure: A 250 mL flask was filled with 37.92 g (52.5 mmol) of PEG (400) ditosylate. Approximately 100 mL of acetone was added, followed by 16.5 g (approximately 21.6 mL or 104.9 mmol) of dimethyloctylamine. […] The oil was soluble in acetone, chloroform and water, but insoluble in ethyl acetate.

[3] = 2.5% additive in polyethylene RT Dowlex 2388, 12 minutes of mixing at 210° C
[4] = 5% additive in polyethylene RT Dowlex 2388, 12 minutes of mixing at 210° C
[5] = 10% additive in polyethylene RT Dowlex 2388, 12 minutes of mixing at 210° C

Row | Compound | discoloration [1, 3] | discoloration [1, 4] | discoloration [1, 5] | solubility ([2]; acetone) | solubility ([2]; chloroform) | solubility ([2]; ethyl acetate) | solubility ([2]; water)
1 | CCCCCCCCCCCCCCCCCC[N+](C)(C)Cc1ccccc1 [additive A] | + | + | + |  |  |  | 
2 | CCCCCCCCCCCCCCCCCC[N+](C)(C)C [additive B] | 0 | + | ++ |  |  |  | 
3 | CCCCCCCCCCCCCCCCCC[N+](C)(C)CCCCCCCCCCCCCCCCCC [additive C] | 0 | 0 | + |  |  |  | 
4 | Br.CCCCCCCCCCCCCCCCCCN(C)CCCCCCCCCCCCCCCCCC [additive D] | − | − | 0 |  |  |  | 
5 | Br.CCCCCCCCCCCCCCCCCCN(CCCCCCCCCCCCCCCCCC)CCCCCCCCCCCCCCCCCC [additive E] | − | − | − |  |  |  | 
6 | α,ω-bis(dimethyloctylammonium)PEG(400) ditosylate |  |  |  | soluble | soluble | insoluble | soluble
